From PMC12040169 (PLOS Biology, 2025)

Experiment: in vitro
Conditions: human, hela cells, % viability

Row | Structure (SMILES) | viability at 28.5 h, 10 µM [%]
1 | COCCn1c(SCc2cc(=O)oc3cc(C)ccc23)nnc1-c1ccc(Cl)cc1 [CBK297517] | 87.8
2 | CCCc1cc(=O)[nH]c(N/C(=N/C(=O)c2ccccc2)Nc2ccc3c(c2)OCCO3)n1 [CBK266485] | 99.5
3 | COc1ccc(C(c2ccccc2C)N(C)C(=O)C2CCNCC2)cn1 (stereo not drawn) [CBK074124] | 100
4 | CCN(CC)C(=O)C1CCCN(C(=O)Nc2cccnc2)C1 (stereo not drawn) [CBK156157] | 96.8
5 | CC(C)(C)CC(=O)NS(=O)(=O)c1cccc(-c2nnco2)c1 [CBK305258] | 78
6 | CC1c2ccsc2CCN1C(=O)CC(NC(N)=O)c1cccc(Br)c1 (stereo not drawn) [CBK305635] | 110
7 | CCc1nc2ccc(C(=O)Nc3ccc(OC)c(OC)c3)cn2c1N(CC)C(=O)NCCc1ccccc1 [CBK147035] | 97.1
8 | O=C(Cc1ccccc1)NN1C(=O)/C(=C/c2ccccc2C(=O)O)SC1=S [CBK262975] | 104
9 | COc1cc(Nc2nc(-c3cccc(C(=O)NCCN(C)C)c3)cn3ccnc23)cc(OC)c1OC [CBK066250] | 89
10 | NNC(=O)c1cc(-c2ccccc2)nc2ccc(Br)cc12 [CBK261762] | 102
11 | CC(C)(C)NC(=O)Cn1cnc2c(cnn2-c2ccccc2)c1=O [CBK269586] | 91.6
12 | Clc1ccccc1CN1CCC(n2cnc3cccnc32)CC1 [CBK283967] | 105
13 | O=C(c1cnccn1)N1CCC(Cc2ccccc2)CC1 [CBK200181] | 92.6
14 | COc1cc(C=c2sc(=CC(=O)C(C)(C)C)[nH]c2=O)ccc1OCC(=O)O [CBK296948] | 104
15 | CCc1ccc(OC)c(S(=O)(=O)NC2CC(C)(C)NC(C)(C)C2)c1 [CBK270098] | 101
16 | NCC(NC(=O)c1cnc(-c2ccncc2)s1)C1CCCCC1 (stereo not drawn) [CBK306502C] | 104
17 | Cc1ccc(CNC(=O)Cn2nnc(-c3ccc(CNCC(F)(F)F)cc3)n2)cc1 [CBK153204T] | 116
18 | COCC1CCCN(Cc2cn(C)nc2C(C)(C)C)C1 (stereo not drawn) [CBK304818] | 108
19 | CC(C)NC(=O)N1Cc2nc[nH]c2C[C@H]1c1nc(-c2ccccc2)no1 [CBK288996] | 83
20 | Cc1cccc(C2(O)CCN(CC(O)c3ccc(F)cc3)CC2)c1 (stereo not drawn) [CBK282504] | 96.6
21 | C=CCc1c(O)nc(SCC(=O)N2CCOCC2)[nH]c1=O [CBK073301] | 91.8
22 | Cc1ccc(SCCC(=O)NC(CC(=O)O)C(=O)O)cc1 (stereo not drawn) [CBK295174] | 103

Row | Structure (SMILES) | viability at 28.5 h, 10 µM [%]
23 | Cc1ncccc1C(=O)N1CCC(c2cc3ccccc3cn2)CC1 [CBK284854] | 113
24 | CCCC(=O)N1CCC(C(=O)Nc2ccccc2F)CC1 [CBK304346] | 108
25 | Cc1ccc(-n2ncc3c2NC(=O)N2CCCN=C32)cc1 [CBK284416] | 110
26 | O=C(NCc1ccc(C(F)(F)F)nc1)OCCc1ccncc1 [CBK200132] | 93.2
27 | Cc1cnn(C2CCCN(C(=O)CC3OCCc4sccc43)C2)c1 (stereo not drawn) [CBK305329] | 84.6
28 | C=CCc1ccc(OCC(=O)NN)c(OC)c1 [CBK261831] | 97.5
29 | COc1ccc2c(c1)c(CN1CCCN(S(=O)(=O)c3ccc(-c4ccccc4)cc3)CC1)cn2C [CBK063125] | 104
30 | c1ccc(CN2CC[C@H](c3nc4ncccc4[nH]3)C2)cc1 [CBK289383] | 106
31 | NCc1ccc(CN(Cc2cccc(Cl)c2)C(=O)NC(c2ccccc2)c2ccccc2)cc1 [CBK046087C] | 91.6
32 | Cn1c(=O)oc2ccc(C(=O)NCCN3CCCCC3CO)cc21 (stereo not drawn) [CBK307594] | 78
33 | O=C(COc1ccc2ccccc2c1)Nc1ccc(Cl)cc1Cl [CBK263598] | 106
34 | O=S(=O)(Nc1ccc(N2CCNCC2)nc1)c1ccc(F)cc1F [CBK000022C] | 110
35 | CCCc1[nH]nc(O)c1CCc1c(Cl)cccc1Cl [CBK081403] | 112
36 | O=C(c1ccncc1)N1C[C@H]2CCc3c(n[nH]c3C(F)(F)F)[C@H]2C1 [CBK282110] | 87.3
37 | COc1ccc(CC(=O)Nc2cccc(-c3cn4ccc(C)cc4n3)c2)cc1OC [CBK269148] | 84.5
38 | CCc1nnc(NC(=O)COC(=O)CSc2nc(C)cc(C)n2)s1 [CBK018792] | 90.9
39 | Cc1nc2ccc(C(=O)NCCCc3ccccn3)cc2s1 [CBK282478] | 88.2
40 | Cc1ccc(NS(=O)(=O)c2cc(C(=O)O)ccc2Cl)cc1S(=O)(=O)N1CCOCC1 [CBK296954] | 113
41 | COc1cc(-c2noc(-c3cc(-c4ccccc4)n[nH]3)n2)cc(OC)c1OC [CBK287774] | 92.3
42 | Cc1cc(CN2CC3CCCN3C[C@@H]2C)c(C)n1CC1CCCO1 (stereo partly drawn) [CBK285419] | 82
43 | COc1ccc(C(C)C)cc1-c1cnc2[nH]c(=O)n([C@H](C)c3ccccc3)c2n1 [CBK064181] | 87.3
44 | COc1ccc(CN2CCCc3ccccc32)cc1 [CBK126458] | 95.6

Row | Structure (SMILES) | viability at 28.5 h, 10 µM [%]
45 | CC(=O)Nc1ccc(S(=O)(=O)Nc2ccnc(N3CCN4CCCC4C3)n2)cc1 (stereo not drawn) [CBK000380C] | 91.1
46 | Nc1nc(SCC(=O)NCCCO)nc2sc3c(c12)CCCC3 [CBK057958] | 87.8
47 | Nc1ncc(-c2ccc(C(F)(F)F)cc2)c(C2CCCN(C(=O)c3ccccc3)C2)n1 (stereo not drawn) [CBK285790] | 89.2
48 | Cc1ccc(OCC(O)Cn2c(=N)n(CCN3CCCCC3)c3ccccc32)cc1 (stereo not drawn) [CBK266375C] | 98.9
49 | O=C(NC(c1ccccc1)c1ccccc1)N1CCN(c2ccccc2)CC1 [CBK155177] | 90.7
50 | NC(=S)N1N=C(c2ccccc2)CC1c1ccccc1 (stereo not drawn) [CBK288435] | 95.6
51 | Cc1cc(C)n2nc(C(=O)NCc3ccccn3)cc2n1 [CBK269015] | 89.3
52 | O=C1CC(N2CCN(Cc3ccc4c(c3)OCO4)CC2)C(=O)N1c1ccc(Cl)cc1 (stereo not drawn) [CBK074402] | 103
53 | O=S(=O)(NCc1ccc(C(F)(F)F)c(F)c1)c1cccc2nsnc12 [CBK062113] | 94.3
54 | CC(=O)Nc1ccc(C(=O)N/C(=C/c2ccccc2)C(=O)O)cc1 [CBK265353] | 87.6
55 | O=S(=O)(CC(F)(F)F)Nc1cccc2cc[nH]c12 [CBK153585] | 99.5
56 | O=C(O)CCCn1cc(NC(=O)c2ccccc2Br)cn1 [CBK270100] | 82.9
57 | O=S(=O)(Nc1ccc(C(O)(C(F)(F)F)C(F)(F)F)cc1)c1csc2ccccc12 [CBK062098] | 85.4
58 | Cc1ccc(S(=O)(=O)Nc2ccc(-c3cn4cccnc4n3)cc2)cc1[N+](=O)[O-] [CBK268936] | 60.5
59 | Cc1ccc(-c2c(C(=O)NNC(=S)NCc3ccco3)csc2C)cc1 [CBK266992] | 96.3
60 | CN(C)c1cccc(Nc2ncc(-c3ccc(N4CCOCC4)cc3)n3ccnc23)c1 [CBK091222] | 94.5
61 | CCCCc1c(O)[nH]c2nc3ccccc3n2c1=O [CBK287875] | 98.1
62 | CC1CC(NC(=S)NCc2csc3ccccc23)CC(C)(C)C1 (stereo not drawn) [CBK013824] | 90.9
63 | COCC(=O)N1C[C@@H](c2ccc(F)c(F)c2)[C@@]2(CCCC(=O)N2)C1 [CBK283358] | 103
64 | Cc1ccc(Oc2ncccc2[N+](=O)[O-])c(Br)c1 [CBK002822] | 94.8
65 | CC(=O)[C@H]1CC[C@H]2[C@@H]3CC[C@H]4CC5(CC[C@]4(C)[C@H]3CC[C@]12C)N=C1C=C(C(C)(C)C)ON1C1C=CCC15 (stereo partly drawn) [CBK303246] | 42.9
66 | CCCN(CCC)C(=O)c1ccc(-n2nc(C(=O)OCC)c(Br)c2C)cc1 [CBK114363] | 109

Row | Structure (SMILES) | viability at 28.5 h, 10 µM [%]
67 | Cc1ccc(C)c(NC(=O)c2sc3cc(C)ccc3c2Cl)c1 [CBK263648] | 90.3
68 | c1cncc(-c2nnc(SCc3nc4ccccc4[nH]3)o2)c1 [CBK264543] | 98.1
69 | N#CCCN(C(=O)Nc1ccccc1Cl)C1CCCCC1 [CBK156366] | 86.8
70 | O=CN1CCc2c([nH]c3ccc(F)cc23)C12CCN(Cc1cccc(Oc3ccc(F)cc3)c1)CC2 [CBK040388] | 96.4
71 | O=C(CC1(O)C(=O)N(Cc2ccc3c(c2)OCO3)c2ccccc21)c1ccccn1 (stereo not drawn) [CBK269725] | 94.2
72 | COC(=O)c1ccc(NS(=O)(=O)c2ccc(C)c(C(=O)O)c2)c(C)c1 [CBK296684] | 105
73 | O=C(NC1CCCc2c1cnn2-c1ccc(F)cc1)C1CC1 (stereo not drawn) [CBK283928] | 111
74 | CC(C)(C)c1ccnc(N[C@H]2CO[C@H]3[C@@H]2OC[C@@H]3NC(=O)NCc2ccccc2)n1 [CBK289522] | 87.3
75 | Nc1ncc(-c2ccoc2)nc1-c1ccc(C(=O)N2CCOCC2)cc1 [CBK064076] | 101
76 | O=C(O)c1cc(-c2ccccn2)nc2ccccc12 [CBK262147K] | 108
77 | O=C1c2ccccc2NC(c2cccc(O)c2)N1O (stereo not drawn) [CBK288426] | 98.2
78 | Cc1n[nH]c(NCc2cccc(Cl)c2Cl)n1 [CBK288037] | 107
79 | O=C(O)c1ccc(CN2CCOC[C@H]2c2nc(-c3ccc(C(F)(F)F)cc3)c[nH]2)cc1 [CBK289317] | 115
80 | CS(=O)(=O)Nc1ccc(-c2ccccc2)c2ccccc12 [CBK083741] | 93.2
81 | CC(=O)N1CCCC(c2cc3cccnc3n2CC(=O)N(C)C)C1 (stereo not drawn) [CBK285177] | 106
82 | COc1cc2c(c(OC)c1OC)CC(=O)NC21CCN(C(=O)CC(C)CC(=O)O)CC1 (stereo not drawn) [CBK047265] | 94.8
83 | CC(=O)N1CCC2(C/C=C/C[C@H]3CN(C(=O)C4CCC4)CC[C@H]3NC(=O)CNC2=O)CC1 [CBK292108] | 105
84 | O=[N+]([O-])c1ccc(CN2CCN(Cc3cccnc3)CC2)cc1 [CBK263161] | 109
85 | N#Cc1c(N)nc(SCC(=O)O)c(C#N)c1-c1ccc(O)cc1 [CBK261270] | 98

Same assay, conditions: human, hela cells, % viability, bulk resorufin, single well

Row | Structure (SMILES) | viability at 28.5 h, 10 µM [%]
86 | O=C1NC(=O)N(Cc2ccccc2)C(=O)/C1=N\Nc1ccc([N+](=O)[O-])cc1 [CBK261123] | 94.5
87 | COc1ccc(Cn2nc(C(=O)NCc3ccco3)c3ccccc32)cc1 [CBK047883] | 63.3
